Test results as given in patent US7618816B2, “Metal-binding therapeutic peptides” (Ontherix, Inc., priority 2005, dated 2009).
Where “and” joins values, the source holds several entries; their conditions need not be identical. Equal entries are not always repeated. Where a SMILES comes first, the peptide text is derived from it. Where no end group is shown, it is not given here. The star is where a group is joined. Biotin = O=C1N[C@H]2[C@H](CS[C@H]2CCCCC(=O)*)N1

Legend:
CCRF-CEM = assay: Cytotoxicity of MBD therapeutic peptides; assay type: cell-based, human; details: relative to equal dose of control MBD peptide, only p < 0.05 shown, 1-4 experiments
Text: (§1) Also, peptides such as NFKB and CSK are of interest, targeting stress-coping mechanisms such as inflammation. The breast cancer lines tested are HS578T, MX-1, MDA-MB231, MDA-MB435 and MCF7. Leukemia cell lines tested for cytotoxicity effects with these MBD-tagged peptides are CCRF-CEM, RPMI-8226 and MOLT-4. Overall, MCF-7 and CCRF-CEM yield the most consistent data and the strongest effect across the board (Table 12). In addition, elevated levels of cytotoxicity are observed when multiple peptides are combined while keeping the overall amount of peptide added constant. Cytotoxicity increases with the number of peptides added per cocktail and is further enhanced by combining peptide cocktail treatment with paclitaxel.

MCF-7 = assay: Cytotoxicity of MBD therapeutic peptides; assay type: cell-based, human; details: relative to equal dose of control MBD peptide, only p < 0.05 shown, 1-4 experiments
Text: as §1

MOLT-4 = assay: Cytotoxicity of MBD therapeutic peptides; assay type: cell-based, human; details: relative to equal dose of control MBD peptide, only p < 0.05 shown, 1-4 experiments
Text: as §1

Hs578T = assay: Cytotoxicity of MBD therapeutic peptides; assay type: cell-based; details: relative to equal dose of control MBD peptide, only p < 0.05 shown, 1-4 experiments
Text: as §1

MDA-MB231 = assay: Cytotoxicity of MBD therapeutic peptides; assay type: cell-based, human; details: relative to equal dose of control MBD peptide, only p < 0.05 shown, 1-4 experiments
Text: as §1

MX-I = assay: Cytotoxicity of MBD therapeutic peptides; assay type: cell-based, human; details: relative to equal dose of control MBD peptide, only p < 0.05 shown, 1-4 experiments
Text: as §1

SR = assay: Cytotoxicity of MBD therapeutic peptides; assay type: cell-based; details: relative to equal dose of control MBD peptide, only p < 0.05 shown, 1-4 experiments
MDA-MB435 = assay: Cytotoxicity of MBD therapeutic peptides; assay type: cell-based; details: relative to equal dose of control MBD peptide, only p < 0.05 shown, 1-4 experiments
Text: as §1

RPMI-8826 = assay: Cytotoxicity of MBD therapeutic peptides; assay type: cell-based, human; details: relative to equal dose of control MBD peptide, only p < 0.05 shown, 1-4 experiments
Text: as §1

cancer cells = assay: Selective cytotoxicity, cancer cells versus normal counterparts; assay type: cell-based, human
Text: as §1

Row | Compound | % viability @ 48 hr/25 ug/ml peptide, CCRF-CEM (CCRF-CEM) | % viability @ 48 hr/25 ug/ml peptide, MCF-7 (MCF-7) | % viability @ 48 hr/25 ug/ml peptide, MOLT-4 (MOLT-4) | % viability @ 48 hr/25 ug/ml peptide, Hs578T (Hs578T) | % viability @ 48 hr/25 ug/ml peptide, MDA-MB231 (MDA-MB231) [%] | % viability @ 48 hr/25 ug/ml peptide, MX-I (MX-I) | % viability @ 48 hr/25 ug/ml peptide, SR (SR) | % viability @ 48 hr/25 ug/ml peptide, MDA-MB435 (MDA-MB435) | % viability @ 48 hr/25 ug/ml peptide, RPMI-8826 (RPMI-8826) [%] | Cytotoxic effect on cancer cells versus normal counterparts (in words) (cancer cells)
1 | CC(C)[C@H](NC(=O)[C@H](C)NC(=O)[C@H](Cc1c[nH]c2ccccc12)NC(=O)[C@H](CS)NC(=O)[C@H](Cc1ccccc1)NC(=O)CNC(=O)[C@H](CCCNC(=N)N)NC(=O)[C@H](CCCCN)NC(=O)[C@H](CCCNC(=N)N)NC(=O)CNC(=O)[C@H](CCCCN)NC(=O)[C@H](CO)NC(=O)[C@@H]1CCCN1C(=O)[C@H](CCCNC(=N)N)NC(=O)[C@H](CS)NC(=O)[C@H](CCC(N)=O)NC(=O)[C@H](CCCCN)NC(=O)[C@H](CCCCN)NC(=O)[C@H](CCCCN)NC(=O)[C@H](Cc1ccc(O)cc1)NC(=O)[C@H](Cc1ccccc1)NC(=O)CNC(=O)[C@H](CCCCN)NC(=O)[C@H](CCCCN)NC(=O)CCCC[C@@H]1SC[C@@H]2NC(=O)N[C@@H]21)C(=O)N[C@@H](C)C(=O)N[C@@H](CCC(=O)O)C(=O)N[C@@H](Cc1ccc(O)cc1)C(=O)N[C@@H](C)C(=O)N[C@@H](CCCNC(=N)N)C(=O)N[C@H](C(=O)N[C@@H](CCC(N)=O)C(=O)N[C@@H](CCCCN)C(=O)N[C@@H](CCCNC(=N)N)C(=O)N[C@@H](CCCCN)C(=O)O)C(C)C [CSK] (Biotin-KKGFYKKKQCRPSKGRKRGFCWAVAEYARVQKRK-OH) | 75.1 ± 4.5% and 85.5 ± 2.3% | 21.1 ± 4.1% and 41.3 ± 5.8% | 81.0 ± 7.1% and 54.8 ± 9.7% | 50.2 ± 1.6% and 76.3 ± 0.6% | – | – | – | – | – | –
2 | CC(C)C[C@H](NC(=O)[C@H](C)NC(=O)[C@H](C)NC(=O)[C@H](Cc1c[nH]c2ccccc12)NC(=O)[C@H](CS)NC(=O)[C@H](Cc1ccccc1)NC(=O)CNC(=O)[C@H](CCCNC(=N)N)NC(=O)[C@H](CCCCN)NC(=O)[C@H](CCCNC(=N)N)NC(=O)CNC(=O)[C@H](CCCCN)NC(=O)[C@H](CO)NC(=O)[C@@H]1CCCN1C(=O)[C@H](CCCNC(=N)N)NC(=O)[C@H](CS)NC(=O)[C@H](CCC(N)=O)NC(=O)[C@H](CCCCN)NC(=O)[C@H](CCCCN)NC(=O)[C@H](CCCCN)NC(=O)[C@H](Cc1ccc(O)cc1)NC(=O)[C@H](Cc1ccccc1)NC(=O)CNC(=O)[C@H](CCCCN)NC(=O)[C@H](CCCCN)NC(=O)CCCC[C@@H]1SC[C@@H]2NC(=O)N[C@@H]21)C(=O)N[C@@H](CC(=O)O)C(=O)N[C@@H](Cc1c[nH]c2ccccc12)C(=O)N[C@@H](CO)C(=O)N[C@@H](Cc1c[nH]c2ccccc12)C(=O)N[C@@H](CC(C)C)C(=O)N[C@@H](CCC(N)=O)C(=O)N[C@H](C(=O)O)[C@@H](C)O [NEMO] (Biotin-KKGFYKKKQCRPSKGRKRGFCWAALDWSWLQT-OH) | – | 77.0 ± 46.7% | – | 81.3 ± 3.0% | 79.0 ± 0.8 | 59.1 ± 3.2% | 56.9 ± 6.2% | 67.4 ± 21.1% and 90.2 ± 3.6% | – | –
3 | CSCC[C@H](NC(=O)[C@H](CC(C)C)NC(=O)[C@H](CCCCN)NC(=O)[C@H](CCC(N)=O)NC(=O)[C@H](CCCNC(=N)N)NC(=O)[C@H](CCCCN)NC(=O)[C@H](CCCNC(=N)N)NC(=O)[C@H](CCC(N)=O)NC(=O)[C@@H](NC(=O)[C@@H]1CCCN1C(=O)[C@H](C)NC(=O)[C@H](Cc1c[nH]c2ccccc12)NC(=O)[C@H](CS)NC(=O)[C@H](Cc1ccccc1)NC(=O)CNC(=O)[C@H](CCCNC(=N)N)NC(=O)[C@H](CCCCN)NC(=O)[C@H](CCCNC(=N)N)NC(=O)CNC(=O)[C@H](CCCCN)NC(=O)[C@H](CO)NC(=O)[C@@H]1CCCN1C(=O)[C@H](CCCNC(=N)N)NC(=O)[C@H](CS)NC(=O)[C@H](CCC(N)=O)NC(=O)[C@H](CCCCN)NC(=O)[C@H](CCCCN)NC(=O)[C@H](CCCCN)NC(=O)[C@H](Cc1ccc(O)cc1)NC(=O)[C@H](Cc1ccccc1)NC(=O)CNC(=O)[C@H](CCCCN)NC(=O)[C@H](CCCCN)NC(=O)CCCC[C@@H]1SC[C@@H]2NC(=O)N[C@@H]21)C(C)C)C(=O)N1CCC[C@H]1C(=O)O [NFKB] (Biotin-KKGFYKKKQCRPSKGRKRGFCWAPVQRKRQKLMP-OH) | 47.4 ± 13.9% | 32.8 ± 17.7% | 35.9 ± 6.8% and 22.5 ± 3.5% | 36.3 ± 5.6% and 30.6 ± 2.7% | 91.6 ± 6.1 | 74.1 ± 6.1% | – | 18.0 ± 1.6% and 29.6 ± 2.6% | 64.6 ± 14.3 | –
4 | CC(C)C[C@H](NC(=O)[C@H](CC(C)C)NC(=O)[C@H](CCCCN)NC(=O)[C@H](Cc1c[nH]c2ccccc12)NC(=O)[C@@H](NC(=O)[C@H](CC(=O)O)NC(=O)[C@H](CO)NC(=O)[C@H](Cc1ccccc1)NC(=O)[C@@H](NC(=O)[C@H](CCC(=O)O)NC(=O)CCCC[C@@H]1SC[C@@H]2NC(=O)N[C@@H]21)[C@@H](C)O)C(C)C)C(=O)N[C@@H](CCCCN)C(=O)N[C@@H](CCCCN)C(=O)NCC(=O)N[C@@H](Cc1ccccc1)C(=O)N[C@@H](Cc1ccc(O)cc1)C(=O)N[C@@H](CCCCN)C(=O)N[C@@H](CCCCN)C(=O)N[C@@H](CCCCN)C(=O)N[C@@H](CCC(N)=O)C(=O)N[C@@H](CS)C(=O)N[C@@H](CCCNC(=N)N)C(=O)N1CCC[C@H]1C(=O)N[C@@H](CO)C(=O)N[C@@H](CCCCN)C(=O)NCC(=O)N[C@@H](CCCNC(=N)N)C(=O)N[C@@H](CCCCN)C(=O)N[C@@H](CCCNC(=N)N)C(=O)NCC(=O)N[C@@H](Cc1ccccc1)C(=O)N[C@@H](CS)C(=O)N[C@@H](Cc1c[nH]c2ccccc12)C(=O)O [PEP-2] (Biotin-ETFSDVWKLLKKGFYKKKQCRPSKGRKRGFCW-OH) | – | 19.3 ± 6.3% and 33.5 ± 4.4% and 35.6 ± 5.7% | 63.5 ± 7.7% and 57.9 ± 1.3% and 88.2 ± 2.6% | 31.1 ± 3.0% and 33.5 ± 2.3% | 40.7 ± 1.8 | 6.8 ± 1.5% and 9.0 ± 0.6% | 33.7 ± 16.0% | 18.5 ± 1.0% | 38.4 ± 4.2 | strong cytotoxic effect on cancer cells but not their human counterparts
5 | Biotin-KKGFYKKKQCRPSKGRKRGFCWAVQTLLQQMQDKFQTMSDQI (cysteines drawn unpaired) [M9HSBP2] | 92.6 ± 2.0% | – | 94.2 ± 17.1% | – | – | – | 88.9 ± 4.0% and 87.7 ± 6.7% | – | 81.7 ± 2.9 | –
